Non-standard residues stand in square brackets, D forms with d. No end group written: not given here. Aib = CC(C)(N)C(=O)O
Assays:
Assay type in all cases: physicochemical
[1] = CD (circular dichroism) spectroscopy of α-helix structure; conditions: for θ222 nm/θ208 nm ratio: Table 11, peptide complexes of Examples 37-97; for [6]222/[θ]208 ratio: before magnetic field (CD), 20 μM in distilled water
Description: To evaluate the structures of a linear plasmid DNA and peptides, CD spectra were analyzed using a Chirascan CD spectrometer (Applied Photophysics, UK). […] The final concentration of the linear plasmid DNA was 30 ng/μL. All the samples were dissolved in H2O. For the formation of the artificial chromosome, a mixture of the peptide and the DNA was incubated for 12 days or longer. Scanning was performed using a 2-mm path-length cuvette. Each scan was repeated three times and averaged. MRE (mean residue ellipticity) was calculated based on the number of amino acid residues.
CD (circular dichroism) spectroscopy was performed as follows.
The CD spectra were analyzed using a Chirascan CD spectrometer (Applied Photophysics, UK). […] All the samples were dissolved in H2O. Each scan was repeated three times using a 2-mm path-length cuvette and averaged. MRE (mean residue ellipticity) was calculated based on the number of amino acid residues.

[2] = NMR residual dipolar couplings (RDC) under magnetic field; conditions: difference of 21.14 T and 16.45 T; 21 residues of α10; methanol-d3/chloroform-d
Description: ^1H NMR and ^2D ^1H-^15N IPAP-HSQC (in-phase/anti-phase heteronuclear single quantum coherence) NMR spectra were acquired at 298 K using a Bruker AVANCE IV 900 MHz spectrometer and a BrukerAVANCE Ill HD 700 MHz spectrometer, both equipped with cryogenic probes. The NMR sample of PEG30-α10-PEG30 was dissolved in methanol-d3/chloroform-d (1:1) containing 0.05% TFA at a concentration of 4.26 mM. The acquisition parameters of IPAP were 2048 t2×1024 t1 points, 8 scans, 0.2 second recycle delay, 14 ppm spectral width for ^1H and 26 ppm spectral width for ^15N. The acquired data were split into two data sets, IP and AP, using a TopSpin software (Bruker, Germany). […]
Anisotropic diamagnetic molecules placed in an isotropic solution are aligned when a magnetic field is applied. The behavior of the peptide according to the present disclosure under a magnetic field was analyzed. For this, RDCs (residual dipolar couplings) between ^1H-^15N amide pairs (^1DNH) were measured by NMR (nuclear magnetic resonance) at 16.45 T (700.400 MHz) and 21.14 T (900.230 MHz). […]
Specifically, ^1H NMR and ^2D ^1H-^15N IPAP-HSQC (in-phase/anti-phase heteronuclear single quantum coherence) NMR spectra were analyzed at 298 K using a BrukerAVANCE IV 900 MHz spectrometer and a BrukerAVANCE Ill HD 700 MHz spectrometer equipped with cryogenic probes. […] Peak positions were analyzed using the NMRFAM-SPARKY software.

[3] = AFM analysis of self-assembled peptide complexes; conditions: for Average diameter (nm) / AFM morphology: Table 12, self-assembled structure; for AFM morphology: 25 μM in distilled water
Description: AFM was performed using an NX10 system (Park Systems, Korea) in a non-contact mode with PPP-NCHR AFM probes (Nanosensors, Switzerland). The DNA concentration ranged from 1 to 30 ng/μL and the peptide concentration ranged from 1 to 32 μM (in H2O). 2 μL of the sample solution was cast onto a freshly cleaved mica surface and dried. The data obtained by the SmartScan program (Park Systems, Korea) was analyzed using the XEI program (Park Systems, Korea).
The CD spectroscopy was performed in the same manner as in Test Example 2 and the AFM was performed using the NX10 system (Park Systems, Korea) in a non-contact mode with PPP-NCHR AFM probes (Nanosensors, Switzerland). The peptide complex concentration ranged from 1 to 32 μM (in H2O). 2 μL of the sample solution was cast onto a freshly cleaved mica surface and dried. The data obtained by the SmartScan program (Park Systems, Korea) were analyzed using the XEI program (Park Systems, Korea).
The peptide complexes of Examples 37-40 were imaged by AFM. 25 μM of the peptide complex was dissolved in distilled water, sonicated for 5 minutes, incubated overnight and dropped on mica for measurement.

[4] = MCD (magnetic circular dichroism) under 1.6 T magnetic field; conditions: magnetic field of 1.6 T applied (MCD)
Description: (§1) MCD (magnetic circular dichroism) spectra were obtained using a Jasco-815 159-L spectrophotometer (Jasco, Japan). The concentration of the peptides was 20 μM in distilled water. Measurements were performed using a 2-mm path-length cuvette. The magnetic field of the permanent magnet in the MCD accessory (PM-491) was 1.6 T. Each scan was repeated three times and averaged.
as §1, with “peptide complex” for “peptides”
MCD (magnetic circular dichroism) analysis was performed to investigate whether the helical stability of the αm peptide in the peptide complex according to the present disclosure is affected by the magnetic field. The peptide complexes of Examples 47 and 99 have partially stable α-helices. When a magnetic field of 1.6 T was applied to the peptide complexes of Examples 47 and 99 (FIGS. 44d, 44e), the contents of α-helices, i.e. the [θ]222/[6]208 ratios, were increased in both molecules. […]

[5] = AFM of self-assembly with or without magnetic field
Description: AFM was performed using the NX10 system (Park Systems, Korea) in a non-contact mode with PPP-NCHR AFM probes (Nanosensors, Switzerland). The peptide complex (specimen) dispersed in an aqueous solvent was placed between neodymium magnets and measurements were compared before and after the application of a magnetic field. The magnetic field intensity was measured using a Model 450 gaussmeter (Lake Shore Cryotronics, USA).
It was confirmed that the peptide complex according to the present disclosure is highly sensitive to a magnetic field and the α-helix structure can be controlled with a magnetic field. It was also investigated whether the self-assembly process of the peptide complex is affected by a magnetic field. The peptide complexes of Examples 51 and 99 were dissolved in aqueous solvents to induce self-assembly. The aqueous solvents were sonicated to prevent aggregation for clear observation. The aqueous solvent was placed in the equipment shown in FIG. 44f and measured by AFM after incubation overnight. The AFM measurement was also made before the treatment for comparison before and after the application of the magnetic field.

[6] = Table 9, linear and cyclic αm-PEG10 peptide complexes, in H2O
[7] = in the absence of the magnetic field

Substance | θ222 nm/θ208 nm ratio [1] | Average diameter (nm) [3] | AFM morphology [3] | [θ]222/[θ]208 [1, 6] | [6]222/[θ]208 ratio [1] | [6]222/[θ]208 ratio [4] | self-assembled structure [5, 7] | also measured
(PEG10)3AUAUAUAUAUAUAUAUAUAUA(PEG10)3 [Example 128] |  |  |  |  |  |  |  | [θ]222/[θ]208 ([1]; Table 14, coil-rod-coil peptide complexes): 1.15; average RDC value (1DNH, exp) [2]: 2.007 Hz
RRRAUAUAUAUAUAUAUAUAUAUA(PEG8)2 [Example 62] | 1.08 | 110-150 nm | Vesicle |  |  |  |  | 
RRRAUAUAUAUAUAUAUAUAUAUAGRGDRGDRGDG (RRRA[Aib]A[Aib]A[Aib]A[Aib]A[Aib]A[Aib]A[Aib]A[Aib]A[Aib]A[Aib]AGRGDRGDRGDG) [Example 69] | 0.88 | 40-260 nm | Vesicle |  |  |  |  | 
RRRRAUAUAUAUAUAUAUAUAUAUA(PEG8)2 (RRRRAXAXAXAXAXAXAXAXAXAXA; (PEG8)2 C-terminal; SITE 6 2-aminoisobutyric acid; SITE 8 2-aminoisobutyric acid; SITE 10 2-aminoisobutyric acid; SITE 12 2-aminoisobutyric acid; SITE 14 2-aminoisobutyric acid; SITE 16 2-aminoisobutyric acid; SITE 18 2-aminoisobutyric acid; SITE 20 2-aminoisobutyric acid; SITE 22 2-aminoisobutyric acid; SITE 24 2-aminoisobutyric acid) [Example 63] | 1.03 | 20-50 nm | Micelle |  |  |  |  | self-assembly behavior in an aqueous solvent ([3]; AFM): self-assembles into spherical particles
WAUAUAUAUAU(PEG2)5 [Example 47] | 0.84 |  |  | 0.84 | 0.86 | 0.91 | highly uniform micelle-like spherical self-assembled structures | self-assembled structure ([5]; magnetic field (0.07 T) applied): anisotropic and unique planar nanostructures
WAUAUAUAUAU(PEG2)5 [Example 99] |  |  |  | 0.93 | 0.89 | 1.01 | vesicle-like spherical self-assembled structures | [θ]222/[θ]208 ([1]; Table 13, cyclic peptide complexes): 0.93; self-assembled structure ([5]; magnetic field (0.25 T) applied): cruciform anisotropic nanostructures

— patent US20240424134A1, “PEPTIDE HAVING INDEPENDENTLY STABILIZED HYDROPHOBIC ALPHA HELIX, PEPTIDE COMPLEX COMPRISING SAME AND USES THEREOF” (UIF (University Industry Foundation), Yonsei University, priority 2022, published 2024)
